Experimental data as given in paper PMC6476926, “Dichloro-Phenyl-Benzotriazoles: A New Selective Class of Human Respiratory Syncytial Virus Entry Inhibitors” (Frontiers in Chemistry, 2019).
Entries after “also recorded” stand apart in the source; their conditions may differ.

What was measured:
RSV A2 = assay: Immunofluorescence attachment assay; format: cell-based, Human Respiratory Syncytial Virus (RSV); settings: 4°C, Vero-76; 20 μM 10d, 6 μg/mL dextran sulfate, 5 μM 6-azauridine
Method: Compounds' inhibitory effects on virus-cell binding event was measured by immunofluorescence performed according to the method described previously with some modifications (Maric et al., [2011]). […] After this incubation period, the monolayers were washed three times in cold PBS in order to remove unbound viral particles and then were fixed in paraformaldehyde 4%. The presence of bound virus was detected by indirect immunofluorescence. […] Abcam, Cambridge, United Kingdom). Cells were then washed three times in PBS-Tween-100 and incubated with a 1:500 dilution of an Alexa Fluor 488-labeled anti-mouse secondary antibody (Molecular Probes, Eugene, Oreg.). After a series of washes in PBS-Tween-100, cells were mounted with Vectashield (Vector Laboratories, Burlingame, CA) containing 4′,6-diamidino-2-phenylindole (DAPI) and images of each well were captured with the ZOE Fluorescent Cell Imager (Biorad).

[1] = Cytotoxicity, MTT method, Vero-76 cells; settings: African green monkey (Cercopithecus aethiops)
RSV = assay: microbe, parasite or virus in culture; format: cell-based, Human Respiratory Syncytial Virus (RSV) strain A2; settings: human respiratory syncytial virus, Vero 76, read-out: EC50 RSV
YFV = assay: microbe, parasite or virus in culture; format: cell-based; settings: Yellow fever virus, BHK, read-out: EC50 YFV
RSV strain B1 cp-52 = assay: microbe, parasite or virus in culture; format: cell-based; settings: human respiratory syncytial virus, Vero 76, read-out: 50% inhibitory concentration RSV cp-52
Reo-1 = assay: microbe, parasite or virus in culture; format: cell-based, Reovirus type-1 (Reo-1); settings: Reovirus sp., BHK, read-out: EC50 Reo-1
[2] = Cytotoxicity, MTT method, MT-4 cells; settings: human
HIV-1IIIB = assay: microbe, parasite or virus in culture; format: cell-based, Human Immunodeficiency Virus type-1 (HIV-1); settings: Human immunodeficiency virus 1, MT4, read-out: EC50 HIV-1IIIB
[3] = Cytotoxicity, MTT method, BHK cells; settings: Syrian hamster (Mesocricetus auratus)
BVDV = assay: microbe, parasite or virus in culture; format: cell-based; settings: Bovine viral diarrhea virus isolates and strains, MDBK, read-out: EC50 BVDV
CV-B5 = assay: microbe, parasite or virus in culture; format: cell-based, Human Enterovirus B [coxsackie type B5 (CV-B5)]; settings: Enterovirus B, CVB5, Vero 76, read-out: EC50 CV-B5
in vitro = settings: cattle (Bos taurus)
Sb-1, VSV, VV, HSV-1 = assay: organism not typed; format: cell-based; settings: Vero 76, read-out: EC50 Sb-1, VSV, VV, HSV-1

Compound | inhibition of viral attachment (RSV A2) | CC50 at 5 days [1] [µM] | EC50 (RSV) [µM] | EC50 (YFV) [µM] | IC50 (RSV strain B1 cp-52) [µM] | melting point [°C] | EC50 (Reo-1) [µM] | CC50 [2] [µM] | EC50 (HIV-1IIIB) [µM] | CC50 [3] [µM] | EC50 (BVDV) [µM] | EC50 (CV-B5) [µM] | CC50 (in vitro) [µM] | EC50 (Sb-1, VSV, VV, HSV-1) [µM] | CC50 [1] [µM]
O=c1cnn([C@@H]2O[C@H](CO)[C@@H](O)[C@H]2O)c(=O)[nH]1 [6-azauridine, reference compound] | not able to block viral binding | ≥ 14 | 1.4 | – | – | – | – | – | – | – | – | – | – | – | –
COc1cc(C(=O)Nc2ccc(-n3nc4cc(Cl)c(Cl)cc4n3)cc2)cc(OC)c1OC [8d, N-[4-(5,6-dichloro-2H-benzo[d][1,2,3]triazol-2-yl)phenyl]-3,4,5-trimethoxybenzamide] | – | 80 | 3 | > 35 | 10 ± 2 | 199 to 201 | > 35 | 63 | > 63 | 35 | 35 | > 80 | > 100 | > 80 | –
O=C(Nc1ccc(-n2nc3cc(Cl)c(Cl)cc3n2)cc1)c1ccc([N+](=O)[O-])cc1 [8e, N-[4-(5,6-dichloro-2H-benzo[d][1,2,3]triazol-2-yl)phenyl]-4-nitrobenzamide] | – | > 100 | 33 | > 68 | – | > 297 | > 68 | > 100 | > 100 | 68 | 4 | > 100 | > 100 | > 100 | –
O=C(Nc1ccc(-n2nc3cc(Cl)c(Cl)cc3n2)cc1)c1ccc(Cl)cc1 [8f, N-[4-(5,6-dichloro-2H-benzo[d][1,2,3]triazol-2-yl)PHENYL] 4-chlorobenzamide] | – | 80 | 20 | > 100 | – | 268 to 270 | > 100 | > 100 | > 100 | > 100 | 60 | > 100 | > 100 | > 100 | –
O=C(Nc1ccc(-n2nc3cc(Cl)c(Cl)cc3n2)cc1)c1ccc(C(F)(F)F)cc1 [8g, N-[4-(5,6-dichloro-2H-benzo[d][1,2,3]triazol-2-yl)phenyl]-4-(trifluoromethyl)benzamide] | – | > 100 | 50 | > 100 | – | 210 to 212 | > 100 | > 100 | > 100 | > 100 | 28 | > 100 | > 100 | > 100 | –
N#Cc1ccc(C(=O)Nc2ccc(-n3nc4cc(Cl)c(Cl)cc4n3)cc2)cc1 [8h, N-[4-(5,6-dichloro-2H-benzo[d][1,2,3]triazol-2-yl)phenyl] 4-cyanobenzamide] | – | > 100 | 60 | > 100 | – | 263 to 265 | > 100 | > 100 | > 100 | > 100 | 11 | > 100 | > 100 | > 100 | –
CCNC(=O)Nc1ccc(-n2nc3cc(Cl)c(Cl)cc3n2)cc1 [10a, 1-[4-(5,6-dichloro-2H-benzo[d][1,2,3]triazol-2-yl)phenyl]-3-ethylurea] | – | > 100 | > 100 | > 100 | – | > 290 | > 100 | > 100 | > 100 | > 100 | > 100 | > 100 | > 100 | > 100 | –
CCCCNC(=O)Nc1ccc(-n2nc3cc(Cl)c(Cl)cc3n2)cc1 [10c, 1-[4-(5,6-dichloro-2H-benzo[d][1,2,3]triazol-2-yl)phenyl]-3-butylurea] | – | > 100 | > 100 | > 100 | – | > 300 | > 100 | > 100 | > 100 | > 100 | > 100 | > 95 | > 100 | > 95 | 90
O=C(Nc1ccccc1)Nc1ccc(-n2nc3cc(Cl)c(Cl)cc3n2)cc1 [10e, 1-[4-(5,6-dichloro-2H-benzo[d][1,2,3]triazol-2-yl)phenyl]-3-phenylurea] | – | > 100 | > 100 | > 100 | – | > 290 | > 100 | > 100 | > 100 | > 100 | > 100 | > 100 | > 100 | > 100 | –
COc1ccc(NC(=O)Nc2ccc(-n3nc4cc(Cl)c(Cl)cc4n3)cc2)cc1 [10g, 1-[4-(5,6-dichloro-2H-benzo[d][1,2,3]triazol-2-yl)phenyl]-3-(4-methoxyphenyl)urea] | – | > 100 | > 100 | > 100 | – | > 290 | > 100 | > 100 | > 100 | > 100 | > 100 | > 100 | > 100 | > 100 | –
O=C(Nc1ccc(Cl)cc1)Nc1ccc(-n2nc3cc(Cl)c(Cl)cc3n2)cc1 [10h, 1-[4-(5,6-dichloro-2H-benzo[d][1,2,3]triazol-2-yl)phenyl]-3-(4-chlorophenyl)urea] | – | > 100 | > 100 | > 100 | – | > 290 | > 100 | > 100 | > 100 | > 100 | > 100 | > 100 | > 100 | > 100 | –
O=C(Nc1ccc(F)cc1)Nc1ccc(-n2nc3cc(Cl)c(Cl)cc3n2)cc1 [10i, 1-[4-(5,6-dichloro-2H-benzo[d][1,2,3]triazol-2-yl)phenyl]-3-(4-fluorophenyl)urea] | – | > 100 | > 100 | > 100 | – | > 290 | > 100 | > 100 | > 100 | > 100 | > 100 | > 100 | > 100 | > 100 | –
O=C(NCc1ccccc1)Nc1ccc(-n2nc3cc(Cl)c(Cl)cc3n2)cc1 [10j, 1-[4-(5,6-dichloro-2H-benzo[d][1,2,3]triazol-2-yl)phenyl]-3-benzylurea] | – | > 100 | > 100 | > 100 | – | > 290 | > 100 | > 100 | > 100 | > 100 | > 100 | > 100 | > 100 | > 100 | –
O=C(Nc1ccc(-n2nc3cc(Cl)c(Cl)cc3n2)cc1)Nc1cccc2ccccc12 [10k, 1-[4-(5,6-dichloro-2H-benzo[d][1,2,3]triazol-2-yl)phenyl]-3-naphtylurea] | – | > 100 | > 100 | > 100 | – | > 290 | > 100 | > 100 | > 100 | > 100 | > 100 | > 100 | > 100 | > 100 | –
dextran sulfate [reference compound] | inhibits viral attachment; also recorded: efficiently blocked viral attachment | – | – | – | – | – | – | – | – | – | – | – | – | – | –
